Measured values published in US20080207634A1, “Chemical Compounds” (priority 2004, published 2008).
One block for each compound: values may come before it.

Tests used:
T-tropic HIV = conditions: patients that are dual tropic or with only the T-tropic form of the virus; cited from earlier work
[1] = Compound cytotoxicity in the absence of virus (CellTiter-Glo); type: cell-based; conditions: human; HOS cells, no virus; read-out: Cytotox (pIC50) (converted)
Protocol: (§1) Compounds were profiled against two HIV-1 viruses, the M-tropic (CCR5 utilizing) Ba-L strain and the T-tropic (CXCR4 utilizing) IIIB strain. Both viruses were propagated in human peripheral blood lymphocytes. Compounds were tested for there ability to block infection of the HOS cell line (expressing hCXCR4/hCCR5/hCD4/pHIV-LTR-luciferase) by either HIV-1 Ba-L or HIV-1 IIIB. Compound cytotoxicity was also examined in the absence of virus addition.
(§2) HOS cells (expressing hCXCR4/hCCR5/hCD4/pHIV-LTR-luciferase) were harvested and diluted in Dulbeccos modified Eagles media supplemented with 2% FCS and non-essential amino acid to a concentration of 60,000 cells/ml. The cells were plated into 96-well plates (100 ul per well) and the plates were placed in a tissue culture incubator (37° C.; 5% CO2/95% air) for a period of 24 h.
(§3) Subsequently, 50 ul of the desired drug solution (4 times the final concentration) was added to each well and the plates were returned to the tissue culture incubator (37° C.; 5% CO2/95% air) for 1 h. Following this incubation 50 ul of diluted virus was added to each well (approximately 2 million RLU per well of virus). The plates were returned to the tissue culture incubator (37° C.; 5% CO2/95% air) and were incubated for a further 96 h.
(§4) Following this incubation the endpoint for the virally infected cultures was quantified following addition of Steady-Glo Luciferase assay system reagent (Promega, Madison, Wis.). Cell viability or non-infected cultures was measured using a CellTiter-Glo luminescent cell viability assay system (Promega, Madison, Wis.). All luminescent readouts are performed on a Topcount luminescence detector (Packard, Meridien, Conn.).

[2] = test system: HIV-1 IIIB (T-tropic, CXCR4 utilizing); assay: HOS HIV-1 infectivity assay, IIIB strain; type: cell-based; conditions: Human immunodeficiency virus 1; HOS cells infected with HIV-1 IIIB, 96 h, luciferase; read-out: HOS (3B)
Protocol: as §1, §2, §3, §4

[3] = Cell/cell fusion assay (luciferase); type: cell-based; conditions: Homo sapiens, HEK293; 24 h incubation, luciferase readout; read-out: Fusion assay (pIC50) (converted)
Excerpt: The complete coding sequences of HIV-1 tat (GenBank Accession No. X07861) and rev (GenBank Accession No. M34378) were cloned into pcDNA3.1 expression vectors containing G418 and hygromycin resistance genes, respectively. The complete coding sequence of the HIV-1 (HXB2 strain) gp160 envelope gene (nucleotide bases 6225-8795 of GenBank Accession No. K03455) was cloned into plasmid pCRII-TOPO. The three HIV genes were additionally inserted into the baculovirus shuttle vector, pFastBacMam1, under the transcriptional control of the CMV promoter. A construction of the pHIV—I LTR containing mutated NFkB sequences linked to the luciferase reporter gene was prepared by digesting pcDNA3.1, containing the G418 resistance gene, with Nru I and Bam HI to remove the CMV promoter. LTR-luc was then cloned into the Nru I/Bam HI sites of the plasmid vector. Plasmid preparations were performed after the plasmids were amplified in Escherichia coli strain DH5-alpha. The fidelity of the inserted sequences was confirmed by double-strand nucleotide sequencing using an ABI Prism Model 377 automated sequencer.
Recombinant BacMam baculoviruses were constructed from pFastBacMam shuttle plasmids by using the bacterial cell-based Bac-to-Bac system. Viruses were propagated in Sf9 (Spodoptera frugiperda) cells cultured in Hink's TNM-FH Insect media supplemented with 10% (v/v) fetal bovine serum and 0.1% (v/v) pluronic F-68 according to established protocols.
Human osteosarcoma (HOS) cells that naturally express human CXCR4 were transfected with human CCR5, human CD4 and the pHIV-LTR-luciferase plasmid using FuGENE 6 transfection reagent. Single cells were isolated and grown under selection condition in order to generate a stable HOS (hCXCR4/hCCR5/hCD4/pHIV-LTR-luciferase) clonal cell line. The cells were maintained in Dulbeccos modified Eagles media supplemented with 10% fetal calf serum (FCS), G418 (400 ug/ml), puromycin (1 ug/ml), mycophenolic acid (40 ug/ml), xanthine (250 ug/ml) and hypoxanthine (13.5 ug/ml) to maintain a selection pressure for cells expressing the LTR-luciferase, hCCR5 and hCD4, respectively. Human embryonic kidney (HEK-293) cells stably transfected to express the human macrophage scavenging receptor (Class A, type 1; GenBank Accession No. D90187), were maintained in DMEM/F-12 media (1:1) supplemented with 10% FCS and 1.5 ug/ml puromycin. The expression of this receptor by the HEK-293 cells enhances their ability to stick to tissue culture treated plasticware.
HEK-293 cells were harvested using enzyme-free cell dissociation buffer. The cells were resuspended in DMEM/F-12 media supplemented with 10% FCS and 1.5 ug/ml and counted. […]
Following the 24 h incubation, total cellular luciferase activity was measured using the LucLite Plus assay kit (Packard, Meridien, Conn.). […]

human CXCR4 = target: T1, human CXCR4 (Homo sapiens, UniProt P61073); assay: Functional FLIPR assay (block of SDF-1 alpha induced [Ca2+]i change); type: cell-based; conditions: HEK-293 cells with human CXCR4 BacMam and Gqi5 BacMam; antagonism of SDF-1 alpha; read-out: Functional assay (pIC50) (converted)
T1 construct: expressed in transfected cells; host or cells: HEK-293 cells (stably expressing human macrophage scavenging receptor) transduced with human CXCR4 BacMam and Gqi5 BacMam
Protocol: Human embryonic kidney (HEK-293) cells were maintained and harvested as described above. Cells were plated in 96-well, black clear bottom, poly-lysine coated plates at a concentration of 40,000 cells per well in a final volume of 100 ul containing human CXCR4BacMam (MOI=25) and Gqi5 BacMam (MOI=12.5). The cells were incubated at 37° C., 5% CO2, 95% humidity for 24 h to allow for protein expression.
After the required incubation time the cells were washed once with 50 ul of fresh serum-free DMEM/F12 media containing probenicid. 50 ul of dye solution was then added to the cells (Calcium Plus Assay Kit Dye; Molecular Devices) was dissolved in 200 ml of the above probenicid/BSA containing media and incubated for 1 h. Cell plates were transferred to a Fluorometric Imaging Plate Reader (FLIPR). Upon addition the effect of the compounds on the change in [Ca^2+]i was examined to determine if the compounds were agonists or antagonists (ability to block SDF-1 alpha activity) at the CXCR4 receptor. IC50 values are determined and pKb values are calculated using the Leff and Dougall equation: KB═IC50/((2+([agonist]/EC50̂b) ̂1/b−1) Where IC50 is that defined by the antagonist concentration-response curve [agonist] is the EC80 concentration of agonist used EC50 is that defined by the agonist concentration-response curve b is the slope of the agonist concentration-response curve.

HIV = assay: HOS HIV anti-infectivity assay (strain not stated); type: cell-based; conditions: Human immunodeficiency virus 1, activity level class, read-out: Antiviral acitivity
Protocol: as §1, §2, §3, §4

T1 sequence (P61073 whole entry): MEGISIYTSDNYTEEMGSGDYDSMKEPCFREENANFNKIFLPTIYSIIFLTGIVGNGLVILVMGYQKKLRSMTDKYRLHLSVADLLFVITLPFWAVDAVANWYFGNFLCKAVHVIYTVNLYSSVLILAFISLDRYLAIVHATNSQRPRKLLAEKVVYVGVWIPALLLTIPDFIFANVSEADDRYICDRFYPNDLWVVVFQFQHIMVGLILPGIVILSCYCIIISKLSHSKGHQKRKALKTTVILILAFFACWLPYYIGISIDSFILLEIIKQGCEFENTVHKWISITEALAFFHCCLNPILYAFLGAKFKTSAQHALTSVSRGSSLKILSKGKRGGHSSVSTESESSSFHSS

- IC50 (HIV): < 0.1 µM
Compound: CC(C)N1CCN(c2cccc3nc(CN(C)[C@H]4CCOc5cccnc54)cn23)CC1 [Example 8, (4S)—N-Methyl-N-({5-[4-(1-methylethyl)-1-piperazinyl]imidazo[1,2-a]pyridin-2-yl}methyl)-3,4-dihydro-2H-pyrano[3,2-b]pyridin-4-amine]

- IC50 (HIV): < 0.1 µM
Compound: CN(C)C1CCN(c2cccc3nc(CN(C)[C@H]4CCOc5cccnc54)cn23)C1 (stereo partly drawn) [Example 9, (4S)—N-({5-[3-(Dimethylamino)-1-pyrrolidinyl]imidazo[1,2-a]pyridin-2-yl}methyl)-N-methyl-3,4-dihydro-2H-pyrano[3,2-b]pyridin-4-amine]

- IC50 (HIV): < 0.1 µM
Compound: CN1CCC(N(C)c2cccc3nc(CN(C)C4CCOc5cccnc54)cn23)C1 (stereo not shown) [Example 12, N-Methyl-N-({5-[methyl(1-methyl-3-pyrrolidinyl)amino]imidazo[1,2-a]pyridin-2-yl}methyl)-3,4-dihydro-2H-pyrano[3,2-b]pyridin-4-amine]

- IC50 (HIV): < 0.1 µM
Compound: CN1CCN(c2cccc3nc(CN(C)C4CCOc5cccnc54)c(CO)n23)CC1 (stereo not shown) [Example 14, [2-{[3,4-dihydro-2H-pyrano[3,2-b]pyridin-4-yl(methyl)amino]methyl}-5-(4-methyl-1-piperazinyl)imidazo[1,2-a]pyridin-3-yl]methanol]

Further lines, the compound ahead of its results:

Compound: c1cc(CN2CCCNCCNCCCNCC2)ccc1CN1CCCNCCNCCCNCC1 [AMD-3100]
- T-tropic HIV viral load (T-tropic HIV): significantly reduce T-tropic HIV viral load

Compound: CN(Cc1cn2c(F)cccc2n1)C1CCOc2cccnc21 (stereo not shown) [Example 2, N-[(5-Fluoroimidazo[1,2-a]pyridin-2-yl)methyl]-N-methyl-3,4-dihydro-2H-pyrano[3,2-b]pyridin-4-amine]
- IC50 at 97 h [1]: > 10 µM
- IC50 [2]: > 20 µM
- IC50 [3]: > 10 µM
- IC50 (human CXCR4): > 10 µM

Compound: CN1CCN(c2cccc3nc(CN(C)C4CCOc5cccnc54)cn23)CC1 (stereo not shown) [Example 3, N-Methyl-N-{[5-(4-methyl-1-piperazinyl)imidazo[1,2-a]pyridin-2-yl]methyl}-3,4-dihydro-2H-pyrano[3,2-b]pyridin-4-amine]
- IC50 at 97 h [1]: > 10 µM
- IC50 [2]: 0.017 µM
- IC50 [3]: 0.00263 µM
- IC50 (human CXCR4): 0.00692 µM
- IC50 (HIV): < 0.1 µM

Compound: CN(Cc1cn2c(N3CCNCC3)cccc2n1)C1CCOc2cccnc21 (stereo not shown) [Example 4, N-Methyl-N-{[5-(1-piperazinyl)imidazo[1,2-a]pyridin-2-yl]methyl}-3,4-dihydro-2H-pyrano[3,2-b]pyridin-4-amine]
- IC50 at 97 h [1]: > 10 µM
- IC50 [2]: 0.034 µM
- IC50 [3]: 0.0269 µM
- IC50 (human CXCR4): 0.0251 µM
- IC50 (HIV): < 0.1 µM

Compound: CN(C)CCN(C)c1cccc2nc(CN(C)C3CCOc4cccnc43)cn12 (stereo not shown) [Example 5]
- IC50 at 97 h [1]: > 10 µM
- IC50 [2]: 0.061 µM
- IC50 [3]: 0.0617 µM
- IC50 (human CXCR4): 0.0692 µM
- IC50 (HIV): < 0.1 µM

Compound: CN(Cc1cn2c(N3CCNC(=O)C3)cccc2n1)[C@H]1CCOc2cccnc21 [Example 7, 4-(2-{[(4S)-3,4-Dihydro-2H-pyrano[3,2-b]pyridin-4-yl(methyl)amino]methyl}imidazo[1,2-a]pyridin-5-yl)-2-piperazinone]
- IC50 (HIV): 0.5 to 10 µM

Compound: CN(Cc1cn2c(N3CCC(N)CC3)cccc2n1)[C@H]1CCOc2cccnc21 [Example 10, (4S)—N-{[5-(4-Amino-1-piperidinyl)imidazo[1,2-a]pyridin-2-yl]methyl}-N-methyl-3,4-dihydro-2H-pyrano[3,2-b]pyridin-4-amine]
- IC50 (HIV): < 0.1 µM

Compound: CN(Cc1cn2c(N3CCC(N)C3)cccc2n1)[C@H]1CCOc2cccnc21 (stereo partly drawn) [Example 11, (4S)—N-{[5-(3-Amino-1-pyrrolidinyl)imidazo[1,2-a]pyridin-2-yl]methyl}-N-methyl-3,4-dihydro-2H-pyrano[3,2-b]pyridin-4-amine]
- IC50 (HIV): < 0.1 µM

Compound: CN1CCN(c2cccc3nc(CN(C)[C@H]4CCOc5cccnc54)cn23)CC1 [Example 13, (4S)—N-Methyl-N-{[5-(4-methyl-1-piperazinyl)imidazo[1,2-a]pyridin-2-yl]methyl}-3,4-dihydro-2H-pyrano[3,2-b]pyridin-4-amine]
- IC50 (HIV): < 0.1 µM
